Columns and labels:
Myzus persicae = assay: JA or MeJA seed treatment, tomato plants challenged with aphids; type: in vivo; conditions: tomato cv. Carousel, seed treatment 3.0 mM JA, challenged 10 weeks after sowing
Protocol: Tomato, pepper, maize and wheat seeds were treated with 3 mM JA or 1.5 mM JA solutions or with 3 mM methyl jasmonate (MeJA) or with deionised water containing 42.8 mM ethanol (control) by full submersion of up to 40 seeds in a Petri dish of solution wrapped in foil for a period of 24 hours at 4° C. in a fridge. A temperature of 4° C. was used both to prevent degradation of the jasmonic acid solutions and to prevent germination of the seeds. The seeds were then removed from the treatment solution and washed in 1 liter of deionised water for 5 minutes to remove the JA or MeJA coating the outside of the seeds. Tomato seeds were sown in rockwool blocks and grown on peat-based compost in glass houses at 12° C.-28° C. under artificial light on a 16 hour light and 8 hour dark cycle for 48, 56 or 70 days. Tomato plants were then challenged with Tetranychus urticae (two-spotted spider mite) which were allowed to feed for 9 days, Manduca sexta (tobacco hornworm) caterpillars which were allowed to feed for 4 days or Myzus persicae (aphid), which were allowed to feed for 10 or 12 days. In each case these organisms were restricted to the plant on which they had originally been placed. Pepper plants were challenged with Myzus persicae (aphid), which were allowed to feed for 2 weeks. Maize and wheat plants were challenged with Spodoptera […] caterpillars which were allowed to feed for 2 days (maize) or 3 days (wheat). The effect of Myzus persicae on plants was determined by counting the aphid population on each plant under a dissecting microscope at ×10 magnification. Seeds of a UK commercial F1 hybrid tomato variety (cv. Carousel) were treated with 3.0 mM jasmonic acid (JA) and 42.8 mM ethanol in deionised H2O for a period of 24 hours at 4° C. in the dark. […] Aphids were allowed to feed on the plants for twelve days and the aphid population was measured at intervals over this period. […]

Spodoptera exempta [1] = assay: JA seed treatment, maize plants challenged with Spodoptera exempta caterpillars; type: in vivo; conditions: maize cv. Earligold, seed treatment 1.5 mM JA, 2 days feeding
Protocol: (§1) Tomato, pepper, maize and wheat seeds were treated with 3 mM JA or 1.5 mM JA solutions or with 3 mM methyl jasmonate (MeJA) or with deionised water containing 42.8 mM ethanol (control) by full submersion of up to 40 seeds in a Petri dish of solution wrapped in foil for a period of 24 hours at 4° C. in a fridge. A temperature of 4° C. was used both to prevent degradation of the jasmonic acid solutions and to prevent germination of the seeds.
(§2) Wheat and maize seeds were sown in peat-based compost and grown in unheated glass houses with supplementary lighting. (600 W SON-T lamps, for 16 hours per day) in the autumn.
(§3) Tomato plants were then challenged with Tetranychus urticae (two-spotted spider mite) which were allowed to feed for 9 days, Manduca sexta (tobacco hornworm) caterpillars which were allowed to feed for 4 days or Myzus persicae (aphid), which were allowed to feed for 10 or 12 days. […]
(§4) The effect of Manduca sexta or Spodoptera exempta on plants was determined by measurement of the leaf area eaten, measured using a leaf area meter.
Seeds of maize cv. […] Caterpillars were allowed to feed on the plants for 2 days and the area of grazed leaves was then measured. […] When expressed as the area of leaf consumed per unit weight of caterpillars the reduction in plants grown from seed treated with JA was even more pronounced (40%, p<0.001, FIG. 9). […]

Spodoptera exempta [2] = assay: JA seed treatment, wheat plants challenged with Spodoptera exempta caterpillars; type: in vivo; conditions: wheat cv. Einstein; seed treatment 1.5 mM JA; challenged 7 weeks after seed treatment; 3 days feeding; p<0.01
Protocol: as §1, §2, §3, §4
Seeds of the commercial wheat variety (cv. Einstein) were treated with 1.5 mM jasmonic acid (JA), and plants grown in the glasshouse (as described under Example 1). […] Caterpillars were allowed to feed on the plants for 3 days and the area of grazed leaves was then measured. […]

tomato (cv. Carousel) = assay: Long term growth and yield study after JA seed treatment, tomato; type: in vivo, Solanum lycopersicum
Excerpt: (§5) Data are means of 8 replicate plants+/−standard error of the mean, and the line is a fitted growth response.

pepper = assay: Long term growth and yield study after JA seed treatment, pepper; type: in vivo; conditions: seed treatment 1.5 or 3.0 mM JA, weekly harvests
Excerpt: as §5

[3] = tomato cv. Carousel, JA seed treatment vs control, 8 replicate plants

CC/C=C\C[C@H]1C(=O)CC[C@@H]1CC(=O)O [JA, jasmonic acid]
Aphid population compared with control plants (Myzus persicae; 12 days feeding): significant (p<0.05) reduction | Aphid population compared with control plants, treated seed stored before sowing (Myzus persicae; seed dried and stored at 4 C for two months before sowing, 10 days feeding): significant (p<0.05) reduction | Area of leaf consumed per unit weight of caterpillars, reduction vs controls (Spodoptera exempta [1]; p<0.001): 40% | Leaf area consumed by caterpillars, lower than controls (Spodoptera exempta [1]; tassel stage approx. 10 weeks after seed treatment, p<0.05): 38% | Leaf area consumed by caterpillars, lower than controls (Spodoptera exempta [2]): 60% | Fruit dry weight at each weekly harvest (tomato (cv. Carousel); [3]): no significant effects | Number of fruit at each weekly harvest (tomato (cv. Carousel); [3]): no significant effects | Plant height at each weekly harvest (tomato (cv. Carousel); [3]): no significant effects | Vegetative or reproductive growth, or commercial yield (tomato (cv. Carousel); tomato, seed treatment 1.5 or 3.0 mM JA, weekly harvests): no significant effect | Vegetative or reproductive growth, or commercial yield (pepper): no significant effect

— patent publication US8507756B2, “Plant protection” (Plant Bioscience Limited, priority 2007, dated 2013)
